PubChem BioAssay (NCI)
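1) Cells in 96-well plates. 2) Compound, 48 h, 5 concentrations. 3) Linear interpolation between surrounding doses. 4) Unreached endpoint = highest concentration. Abbreviation: GI50, concentration required for 50% inhibition of growth. The concentration for full growth arrest is given as TGI.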

Key:
Assay in all cases: NCI-60 cell line screen, 48 h
SK-MEL-5 melanoma = test system: SK-MEL-5 melanoma
OVCAR-8 ovarian = test system: OVCAR-8 ovarian
DU-145 prostate = test system: DU-145 prostate
SK-MEL-2 melanoma = test system: SK-MEL-2 melanoma
CAKI-1 renal = test system: CAKI-1 renal
SF-268 CNS = test system: SF-268 CNS
RPMI-8226 leukemia = test system: RPMI-8226 leukemia
NCI/ADR-RES ovarian = test system: NCI/ADR-RES ovarian
OVCAR-5 ovarian = test system: OVCAR-5 ovarian
IGROV1 ovarian = test system: IGROV1 ovarian
SR leukemia = test system: SR leukemia
NCI-H226 lung = test system: NCI-H226 lung
SN12C renal = test system: SN12C renal
SK-OV-3 ovarian = test system: SK-OV-3 ovarian
MDA-MB-468 breast = test system: MDA-MB-468 breast
HCC-2998 colon = test system: HCC-2998 colon
HOP-62 NSCLC = test system: HOP-62 NSCLC
TK-10 renal = test system: TK-10 renal
PC-3 prostate = test system: PC-3 prostate
UO-31 renal = test system: UO-31 renal
786-0 renal = test system: 786-0 renal
HT29 colon = test system: HT29 colon
UACC-257 melanoma = test system: UACC-257 melanoma
SNB-19 CNS = test system: SNB-19 CNS
MALME-3M melanoma = test system: MALME-3M melanoma
SF-295 CNS = test system: SF-295 CNS
MCF7 breast = test system: MCF7 breast
SNB-75 CNS = test system: SNB-75 CNS
U251 CNS = test system: U251 CNS
UACC-62 melanoma = test system: UACC-62 melanoma
MOLT-4 leukemia = test system: MOLT-4 leukemia
COLO 205 colon = test system: COLO 205 colon
BT-549 breast = test system: BT-549 breast
NCI-H460 lung = test system: NCI-H460 lung
NCI-H23 lung = test system: NCI-H23 lung
HCT-15 colon = test system: HCT-15 colon
ACHN renal = test system: ACHN renal
A498 renal = test system: A498 renal
RXF 393 renal = test system: RXF 393 renal
HOP-92 NSCLC = test system: HOP-92 NSCLC
A549 NSCLC = test system: A549 NSCLC
K-562 leukemia = test system: K-562 leukemia
NCI-H522 lung = test system: NCI-H522 lung
EKVX NSCLC = test system: EKVX NSCLC
SF-539 CNS = test system: SF-539 CNS
SK-MEL-28 melanoma = test system: SK-MEL-28 melanoma
M14 melanoma = test system: M14 melanoma
OVCAR-4 ovarian = test system: OVCAR-4 ovarian
T-47D breast = test system: T-47D breast
HL-60(TB) leukemia = test system: HL-60(TB) leukemia
HCT-116 colon = test system: HCT-116 colon
KM12 colon = test system: KM12 colon
MDA-MB-435 = test system: MDA-MB-435
OVCAR-3 ovarian = test system: OVCAR-3 ovarian
CCRF-CEM leukemia = test system: CCRF-CEM leukemia

## O=C(Cn1c(/C=C/c2ccccc2)nc2ccccc2c1=O)Nc1ccc(Cl)cc1
SK-MEL-5 melanoma
  GI50: > 100 µM
  TGI: > 100 µM
OVCAR-8 ovarian
  GI50: > 100 µM
  TGI: > 100 µM
DU-145 prostate
  GI50: > 100 µM
  TGI: > 100 µM
SK-MEL-2 melanoma
  GI50: > 100 µM
  TGI: > 100 µM
CAKI-1 renal
  GI50: 69 µM
  TGI: > 100 µM
SF-268 CNS
  GI50: > 100 µM
  TGI: > 100 µM
RPMI-8226 leukemia
  GI50: > 100 µM
  TGI: > 100 µM
NCI/ADR-RES ovarian
  GI50: 71.4 µM
  TGI: > 100 µM
OVCAR-5 ovarian
  GI50: > 100 µM
  TGI: > 100 µM
IGROV1 ovarian
  GI50: 70.1 µM
  TGI: > 100 µM
SR leukemia
  GI50: > 100 µM
  TGI: > 100 µM
NCI-H226 lung
  GI50: 23.9 µM
  TGI: > 100 µM
SN12C renal
  GI50: 16.7 µM
  TGI: > 100 µM
SK-OV-3 ovarian
  GI50: 24.8 µM
  TGI: 57.4 µM
MDA-MB-468 breast
  GI50: 29.2 µM
  TGI: > 100 µM
HCC-2998 colon
  GI50: > 100 µM
  TGI: > 100 µM
HOP-62 NSCLC
  GI50: 24.7 µM
  TGI: 80.1 µM
TK-10 renal
  GI50: 21.4 µM
  TGI: 46 µM
PC-3 prostate
  GI50: > 100 µM
  TGI: > 100 µM
UO-31 renal
  GI50: 21.3 µM
  TGI: 64.8 µM
786-0 renal
  GI50: 18.4 µM
  TGI: 64.8 µM
HT29 colon
  GI50: > 100 µM
  TGI: > 100 µM
UACC-257 melanoma
  GI50: > 100 µM
  TGI: > 100 µM
SNB-19 CNS
  GI50: 32.7 µM
  TGI: > 100 µM
MALME-3M melanoma
  GI50: 71.3 µM
  TGI: > 100 µM
SF-295 CNS
  GI50: 26.8 µM
  TGI: > 100 µM
MCF7 breast
  GI50: > 100 µM
  TGI: > 100 µM
SNB-75 CNS
  GI50: 19.4 µM
  TGI: 53.8 µM
U251 CNS
  GI50: 13.9 µM
  TGI: > 100 µM
UACC-62 melanoma
  GI50: > 100 µM
  TGI: > 100 µM
MOLT-4 leukemia
  GI50: > 100 µM
  TGI: > 100 µM
COLO 205 colon
  GI50: > 100 µM
  TGI: > 100 µM
BT-549 breast
  GI50: > 100 µM
  TGI: > 100 µM
NCI-H460 lung
  GI50: 39.6 µM
  TGI: > 100 µM
NCI-H23 lung
  GI50: 34.4 µM
  TGI: > 100 µM
HCT-15 colon
  GI50: > 100 µM
  TGI: > 100 µM
ACHN renal
  GI50: 16 µM
  TGI: 49.6 µM
A498 renal
  GI50: 22.2 µM
  TGI: 40.9 µM
RXF 393 renal
  GI50: 14.4 µM
  TGI: 35.3 µM
HOP-92 NSCLC
  GI50: 11.2 µM
  TGI: 32.2 µM
A549 NSCLC
  GI50: 87.2 µM
  TGI: > 100 µM
K-562 leukemia
  GI50: > 100 µM
  TGI: > 100 µM
NCI-H522 lung
  GI50: 83.4 µM
  TGI: > 100 µM
EKVX NSCLC
  GI50: > 100 µM
  TGI: > 100 µM
SF-539 CNS
  GI50: 30.9 µM
  TGI: > 100 µM
SK-MEL-28 melanoma
  GI50: > 100 µM
  TGI: > 100 µM
M14 melanoma
  GI50: > 100 µM
  TGI: > 100 µM
OVCAR-4 ovarian
  GI50: 9.54 µM
  TGI: > 100 µM
T-47D breast
  GI50: 15.8 µM
  TGI: 47.5 µM
HL-60(TB) leukemia
  GI50: > 100 µM
  TGI: > 100 µM
HCT-116 colon
  GI50: 46 µM
  TGI: > 100 µM
KM12 colon
  GI50: > 100 µM
  TGI: > 100 µM
MDA-MB-435
  GI50: > 100 µM
  TGI: > 100 µM
OVCAR-3 ovarian
  GI50: 60.6 µM
  TGI: > 100 µM
CCRF-CEM leukemia
  GI50: > 100 µM
  TGI: > 100 µM
